From the kinase profiling compilation of Christmann-Franck et al. (2016)

How the values were obtained:
Assay in all cases: KINOMEscan competition binding
Conditions in all cases: compound 2.0 µM
PLK4 (human) = PLK4 (human) (UniProt O00444)
FGR (human) = FGR (human) (UniProt P09769)
MAP3K13 (human) = MAP3K13 (human) (UniProt O43283)
WEE1 (human) = WEE1 (human) (UniProt P30291)
CAMK1D (human) = CAMK1D (human) (UniProt Q8IU85)
PLK1 (human) = PLK1 (human) (UniProt P53350)
ULK3 (human) = ULK3 (human) (UniProt Q6PHR2)
LIMK1 (human) = LIMK1 (human) (UniProt P53667)
MST4 (human) = MST4 (human) (UniProt Q9P289)
MLTK (human) = MLTK (human) (UniProt Q9NYL2)
[1] = system: PIK3CA (human), P42336 [H1047Y]
STK16 (human) = STK16 (human) (UniProt O75716)
EPHB2 (human) = EPHB2 (human) (UniProt P29323)
MTOR (human) = MTOR (human) (UniProt P42345)
[2] = system: FLT3 (human), P36888 [R834Q]
ICK (human) = ICK (human) (UniProt Q9UPZ9)
CDK14 (human) = CDK14 (human) (UniProt O94921)
CDK3 (human) = CDK3 (human) (UniProt Q00526)
SGK110 (human) = SGK110 (human) (UniProt P0C264)
PTK2B (human) = PTK2B (human) (UniProt Q14289)
MAP4K2 (human) = MAP4K2 (human) (UniProt Q12851)
[3] = target: JAK3 JH1 catalytic (human) (UniProt P52333)
[4] = system: FLT3 (human), P36888 [N841I]
[5] = system: EGFR (human), P00533 [746-750 del]
[6] = system: KIT (human), P10721 [V559D]
STK10 (human) = STK10 (human) (UniProt O94804)
ROCK2 (human) = ROCK2 (human) (UniProt O75116)
DYRK1B (human) = DYRK1B (human) (UniProt Q9Y463)
NEK2 (human) = NEK2 (human) (UniProt P51955)
YSK4 (human) = YSK4 (human) (UniProt Q56UN5)
ACVR1 (human) = ACVR1 (human) (UniProt Q04771)
VRK2 (human) = VRK2 (human) (UniProt Q86Y07)
FES (human) = FES (human) (UniProt P07332)
NIM1 (human) = NIM1 (human) (UniProt Q8IY84)
STK32C (human) = STK32C (human) (UniProt Q86UX6)
DYRK1A (human) = DYRK1A (human) (UniProt Q13627)
EPHA3 (human) = EPHA3 (human) (UniProt P29320)
TTK (human) = TTK (human) (UniProt P33981)
TLK1 (human) = TLK1 (human) (UniProt Q9UKI8)
MARK2 (human) = MARK2 (human) (UniProt Q7KZI7)
CDKL2 (human) = CDKL2 (human) (UniProt Q92772)
FLT4 (human) = FLT4 (human) (UniProt P35916)
DCLK3 (human) = DCLK3 (human) (UniProt Q9C098)

Chain of MLTK (human) (Q9NYL2 whole entry, looked up): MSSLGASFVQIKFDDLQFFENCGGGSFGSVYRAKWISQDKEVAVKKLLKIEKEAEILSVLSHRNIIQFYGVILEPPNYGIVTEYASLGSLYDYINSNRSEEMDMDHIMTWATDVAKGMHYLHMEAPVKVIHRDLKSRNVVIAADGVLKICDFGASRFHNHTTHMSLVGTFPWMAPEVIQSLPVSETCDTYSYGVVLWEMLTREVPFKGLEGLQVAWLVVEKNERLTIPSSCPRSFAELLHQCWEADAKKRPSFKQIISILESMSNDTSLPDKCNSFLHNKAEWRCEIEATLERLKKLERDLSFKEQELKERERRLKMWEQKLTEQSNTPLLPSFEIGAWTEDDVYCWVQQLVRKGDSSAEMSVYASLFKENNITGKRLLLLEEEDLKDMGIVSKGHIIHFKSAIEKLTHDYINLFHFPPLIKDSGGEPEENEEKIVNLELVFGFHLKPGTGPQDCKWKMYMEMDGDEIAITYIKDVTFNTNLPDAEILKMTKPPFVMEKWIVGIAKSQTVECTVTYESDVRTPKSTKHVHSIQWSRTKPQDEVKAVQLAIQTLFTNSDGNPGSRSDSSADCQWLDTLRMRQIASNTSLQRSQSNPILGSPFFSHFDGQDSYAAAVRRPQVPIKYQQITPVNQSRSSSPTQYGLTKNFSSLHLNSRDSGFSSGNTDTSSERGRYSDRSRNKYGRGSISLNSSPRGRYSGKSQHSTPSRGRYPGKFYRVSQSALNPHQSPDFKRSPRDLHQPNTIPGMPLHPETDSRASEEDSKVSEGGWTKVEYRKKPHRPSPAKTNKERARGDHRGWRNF
Chain of WEE1 (human) (P30291 whole entry, looked up): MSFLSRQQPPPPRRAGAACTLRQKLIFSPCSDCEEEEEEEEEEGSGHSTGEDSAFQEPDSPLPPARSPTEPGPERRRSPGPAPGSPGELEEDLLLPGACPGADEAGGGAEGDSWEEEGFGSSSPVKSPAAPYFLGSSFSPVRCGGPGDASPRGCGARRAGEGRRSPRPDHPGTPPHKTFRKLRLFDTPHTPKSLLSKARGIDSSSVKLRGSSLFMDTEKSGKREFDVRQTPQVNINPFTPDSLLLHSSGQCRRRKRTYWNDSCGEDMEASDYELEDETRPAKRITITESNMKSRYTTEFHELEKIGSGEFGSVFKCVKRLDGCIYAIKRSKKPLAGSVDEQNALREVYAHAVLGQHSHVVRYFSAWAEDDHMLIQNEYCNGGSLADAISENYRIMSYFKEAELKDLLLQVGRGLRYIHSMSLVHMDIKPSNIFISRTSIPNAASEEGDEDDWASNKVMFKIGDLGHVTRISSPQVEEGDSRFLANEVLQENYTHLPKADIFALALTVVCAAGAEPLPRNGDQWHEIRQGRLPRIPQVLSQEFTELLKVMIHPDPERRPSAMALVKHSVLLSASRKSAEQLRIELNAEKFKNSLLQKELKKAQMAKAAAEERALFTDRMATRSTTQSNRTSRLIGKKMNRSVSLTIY
Chain of MAP4K2 (human) (Q12851 whole entry, looked up): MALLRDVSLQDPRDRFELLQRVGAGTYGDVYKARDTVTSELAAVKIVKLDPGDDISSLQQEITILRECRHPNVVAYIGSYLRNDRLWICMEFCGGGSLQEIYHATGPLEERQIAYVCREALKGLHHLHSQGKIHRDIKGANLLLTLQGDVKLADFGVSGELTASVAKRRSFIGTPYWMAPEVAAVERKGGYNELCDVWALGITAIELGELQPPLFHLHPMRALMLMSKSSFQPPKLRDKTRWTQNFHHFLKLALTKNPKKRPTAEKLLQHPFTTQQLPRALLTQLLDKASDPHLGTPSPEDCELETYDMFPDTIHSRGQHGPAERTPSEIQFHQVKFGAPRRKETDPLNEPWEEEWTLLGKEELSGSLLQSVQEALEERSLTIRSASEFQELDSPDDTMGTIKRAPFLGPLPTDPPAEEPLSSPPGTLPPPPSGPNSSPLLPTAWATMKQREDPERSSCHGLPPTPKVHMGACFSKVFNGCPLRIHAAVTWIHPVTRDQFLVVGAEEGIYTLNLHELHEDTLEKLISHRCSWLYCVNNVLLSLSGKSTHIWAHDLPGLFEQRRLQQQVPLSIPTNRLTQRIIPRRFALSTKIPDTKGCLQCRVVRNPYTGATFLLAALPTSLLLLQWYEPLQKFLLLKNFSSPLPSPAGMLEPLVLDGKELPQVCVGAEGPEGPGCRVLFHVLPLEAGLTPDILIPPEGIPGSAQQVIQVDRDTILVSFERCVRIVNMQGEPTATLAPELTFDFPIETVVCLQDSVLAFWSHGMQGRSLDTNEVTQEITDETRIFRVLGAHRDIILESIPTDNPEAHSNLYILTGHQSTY
Chain of FGR (human) (P09769 whole entry, looked up): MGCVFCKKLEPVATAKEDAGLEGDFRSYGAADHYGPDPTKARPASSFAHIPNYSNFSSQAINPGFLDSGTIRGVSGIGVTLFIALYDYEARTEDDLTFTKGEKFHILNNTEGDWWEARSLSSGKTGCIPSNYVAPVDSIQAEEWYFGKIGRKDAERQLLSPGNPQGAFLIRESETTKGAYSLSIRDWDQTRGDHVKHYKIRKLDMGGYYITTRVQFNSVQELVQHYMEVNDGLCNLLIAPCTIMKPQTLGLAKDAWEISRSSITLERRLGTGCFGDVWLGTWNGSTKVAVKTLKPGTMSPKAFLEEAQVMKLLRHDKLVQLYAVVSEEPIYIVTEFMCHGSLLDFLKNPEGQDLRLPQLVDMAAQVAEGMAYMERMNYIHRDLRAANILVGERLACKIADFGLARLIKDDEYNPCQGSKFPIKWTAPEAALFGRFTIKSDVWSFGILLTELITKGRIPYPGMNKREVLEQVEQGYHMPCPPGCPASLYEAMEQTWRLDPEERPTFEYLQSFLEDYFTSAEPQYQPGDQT
Chain of ROCK2 (human) (O75116 whole entry, looked up): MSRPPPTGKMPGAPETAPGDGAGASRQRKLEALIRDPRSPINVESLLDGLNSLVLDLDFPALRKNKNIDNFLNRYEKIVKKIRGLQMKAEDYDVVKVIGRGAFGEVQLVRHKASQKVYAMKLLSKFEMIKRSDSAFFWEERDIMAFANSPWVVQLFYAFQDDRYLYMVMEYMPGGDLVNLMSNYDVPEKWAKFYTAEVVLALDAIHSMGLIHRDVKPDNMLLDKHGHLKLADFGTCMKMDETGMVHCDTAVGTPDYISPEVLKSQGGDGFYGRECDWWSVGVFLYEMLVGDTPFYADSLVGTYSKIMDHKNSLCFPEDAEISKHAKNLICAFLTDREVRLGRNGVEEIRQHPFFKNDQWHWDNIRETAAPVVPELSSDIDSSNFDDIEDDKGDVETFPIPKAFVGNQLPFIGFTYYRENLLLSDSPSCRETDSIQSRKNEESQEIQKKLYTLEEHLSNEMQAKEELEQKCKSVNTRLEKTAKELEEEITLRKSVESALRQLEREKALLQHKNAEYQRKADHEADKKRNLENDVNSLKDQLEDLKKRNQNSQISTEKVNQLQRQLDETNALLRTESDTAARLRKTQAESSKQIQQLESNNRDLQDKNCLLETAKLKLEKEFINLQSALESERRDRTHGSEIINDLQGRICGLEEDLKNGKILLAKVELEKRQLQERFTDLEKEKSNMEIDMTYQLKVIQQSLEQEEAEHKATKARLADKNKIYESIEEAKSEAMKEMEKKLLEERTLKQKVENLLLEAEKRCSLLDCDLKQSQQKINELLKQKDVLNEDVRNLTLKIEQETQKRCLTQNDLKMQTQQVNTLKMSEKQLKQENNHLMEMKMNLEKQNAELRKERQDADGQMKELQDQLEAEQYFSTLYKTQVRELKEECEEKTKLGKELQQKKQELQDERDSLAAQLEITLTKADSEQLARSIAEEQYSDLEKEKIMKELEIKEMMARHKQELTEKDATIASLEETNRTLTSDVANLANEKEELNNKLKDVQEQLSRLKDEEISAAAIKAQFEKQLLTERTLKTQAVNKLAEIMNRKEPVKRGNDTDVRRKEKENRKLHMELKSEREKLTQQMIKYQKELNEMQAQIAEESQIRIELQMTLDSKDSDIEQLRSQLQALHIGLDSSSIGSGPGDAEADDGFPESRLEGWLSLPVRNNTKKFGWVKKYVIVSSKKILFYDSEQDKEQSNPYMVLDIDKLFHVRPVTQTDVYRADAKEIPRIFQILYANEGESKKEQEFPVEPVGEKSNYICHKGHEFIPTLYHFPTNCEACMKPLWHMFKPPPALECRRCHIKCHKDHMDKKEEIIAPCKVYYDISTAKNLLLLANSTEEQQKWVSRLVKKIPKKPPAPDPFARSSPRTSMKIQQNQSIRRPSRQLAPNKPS
Chain of MST4 (human) (Q9P289 whole entry, looked up): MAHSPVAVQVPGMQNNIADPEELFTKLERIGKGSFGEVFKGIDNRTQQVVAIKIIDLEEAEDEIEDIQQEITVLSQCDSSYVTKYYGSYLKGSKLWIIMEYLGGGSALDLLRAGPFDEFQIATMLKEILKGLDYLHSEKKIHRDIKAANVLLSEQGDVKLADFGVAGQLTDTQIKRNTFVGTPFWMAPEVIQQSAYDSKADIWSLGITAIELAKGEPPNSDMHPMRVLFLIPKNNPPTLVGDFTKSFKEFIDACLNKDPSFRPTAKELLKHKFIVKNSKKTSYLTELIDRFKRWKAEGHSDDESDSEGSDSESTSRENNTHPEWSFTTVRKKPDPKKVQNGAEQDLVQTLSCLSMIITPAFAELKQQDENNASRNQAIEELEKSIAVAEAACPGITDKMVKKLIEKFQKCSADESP
Chain of NEK2 (human) (P51955 whole entry, looked up): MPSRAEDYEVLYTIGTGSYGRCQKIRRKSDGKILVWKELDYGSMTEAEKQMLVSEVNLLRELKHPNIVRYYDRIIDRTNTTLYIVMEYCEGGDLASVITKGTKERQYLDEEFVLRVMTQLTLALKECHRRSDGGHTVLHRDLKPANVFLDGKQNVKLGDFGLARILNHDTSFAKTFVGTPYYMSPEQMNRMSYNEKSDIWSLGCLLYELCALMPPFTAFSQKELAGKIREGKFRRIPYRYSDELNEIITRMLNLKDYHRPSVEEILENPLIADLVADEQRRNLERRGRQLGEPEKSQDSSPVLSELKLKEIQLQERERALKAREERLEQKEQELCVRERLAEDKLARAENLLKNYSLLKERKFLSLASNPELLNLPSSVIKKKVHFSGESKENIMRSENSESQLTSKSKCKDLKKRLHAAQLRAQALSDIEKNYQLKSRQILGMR

Compound: N#Cc1ccc2ncnc(NCCc3ccc4ccccc4c3)c2c1
- kinase still bound, per cent of control (PLK4 (human)): 100%
- kinase still bound, per cent of control (FGR (human)): 100%
- kinase still bound, per cent of control (MAP3K13 (human)): 100%
- kinase still bound, per cent of control (WEE1 (human)): 88%
- kinase still bound, per cent of control (CAMK1D (human)): 100%
- kinase still bound, per cent of control (PLK1 (human)): 88%
- kinase still bound, per cent of control (ULK3 (human)): 100%
- kinase still bound, per cent of control (LIMK1 (human)): 100%
- kinase still bound, per cent of control (MST4 (human)): 77%
- kinase still bound, per cent of control (MLTK (human)): 100%
- kinase still bound, per cent of control [1]: 78%
- kinase still bound, per cent of control (STK16 (human)): 51%
- kinase still bound, per cent of control (EPHB2 (human)): 99%
- kinase still bound, per cent of control (MTOR (human)): 80%
- kinase still bound, per cent of control [2]: 100%
- kinase still bound, per cent of control (ICK (human)): 100%
- kinase still bound, per cent of control (CDK14 (human)): 100%
- kinase still bound, per cent of control (CDK3 (human)): 100%
- kinase still bound, per cent of control (SGK110 (human)): 79%
- kinase still bound, per cent of control (PTK2B (human)): 85%
- kinase still bound, per cent of control (MAP4K2 (human)): 60%
- kinase still bound, per cent of control [3]: 100%
- kinase still bound, per cent of control [4]: 95%
- kinase still bound, per cent of control [5]: 100%
- kinase still bound, per cent of control [6]: 95%
- kinase still bound, per cent of control (STK10 (human)): 67%
- kinase still bound, per cent of control (ROCK2 (human)): 92%
- kinase still bound, per cent of control (DYRK1B (human)): 96%
- kinase still bound, per cent of control (NEK2 (human)): 100%
- kinase still bound, per cent of control (YSK4 (human)): 86%
- kinase still bound, per cent of control (ACVR1 (human)): 100%
- kinase still bound, per cent of control (VRK2 (human)): 100%
- kinase still bound, per cent of control (FES (human)): 100%
- kinase still bound, per cent of control (NIM1 (human)): 82%
- kinase still bound, per cent of control (STK32C (human)): 100%
- kinase still bound, per cent of control (DYRK1A (human)): 100%
- kinase still bound, per cent of control (EPHA3 (human)): 91%
- kinase still bound, per cent of control (TTK (human)): 75%
- kinase still bound, per cent of control (TLK1 (human)): 92%
- kinase still bound, per cent of control (MARK2 (human)): 94%
- kinase still bound, per cent of control (CDKL2 (human)): 71%
- kinase still bound, per cent of control (FLT4 (human)): 100%
- kinase still bound, per cent of control (DCLK3 (human)): 99%
